Source: the Kinase Knowledgebase extract (Sharma et al. 2016)
“And” between values parts separate entries of the source, which are not always exact repeats. Equal values may be shown once.

Legend:
CDK2 (human) [1] = target: CDK2 (human) (UniProt P24941); test: Enzyme Assay
CDK2 (human) [2] = target: CDK2 (human) (UniProt P24941); test: Enzyme Assay; remark: listed apart in the source
CDK2;CDK1 (human) = CDK2;CDK1 (human) (UniProt P24941); test: Cell-Based Assay

Structure (SMILES) | IC50 (CDK2 (human) [1]) [µM] | also measured
CC(=O)N[C@H]1CC[C@H](Nc2nc(NCc3ccc(-c4cccc(F)c4)cc3)c3ncn(C(C)C)c3n2)CC1 | – | GI50 (CDK2;CDK1 (human); hela-s3): 0.07 µM and 0.2 µM
COC(=O)c1ccc(-c2ccc(CNc3nc(N[C@H]4CC[C@H](NC(C)=O)CC4)nc4c3ncn4C(C)C)cc2)cc1 | > 10 | –
CC(=O)N[C@H]1CC[C@H](Nc2nc(NCc3ccc(-c4ccc(F)cc4)cc3)c3ncn(C(C)C)c3n2)CC1 | > 10 | –
CC(=O)N[C@H]1CC[C@H](Nc2nc(NCc3ccc(-c4ccccc4)nc3)c3ncn(C(C)C)c3n2)CC1 | – | GI50 (CDK2;CDK1 (human); h226): 0.052 µM
CC(=O)N[C@H]1CC[C@H](Nc2nc(NCc3ccc(-c4ccc(Cl)cc4)cc3)c3ncn(C(C)C)c3n2)CC1 | > 10 | –
CC(=O)C1CCN(c2nc(NCc3ccc(-c4ccccc4)cc3)c3ncn(C(C)C)c3n2)CC1 | – | GI50 (CDK2;CDK1 (human); hela-s3): 3 µM and 5 µM
CC(=O)N[C@H]1CC[C@H](Nc2nc(NCc3ccc(-c4ccc(C(=O)O)cc4)cc3)c3ncn(C(C)C)c3n2)CC1 | > 10 | IC50 (CDK2 (human) [2]): > 10 µM
CC(=O)N[C@H]1CC[C@H](Nc2nc(NCc3ccc(-c4ccc(F)c(Cl)c4)cc3)c3ncn(C(C)C)c3n2)CC1 | > 10 | –
CC(C)n1cnc2c(NCc3ccc(-c4cccc(F)c4)cc3)nc(N[C@H]3CC[C@H](N)CC3)nc21 | – | GI50 (CDK2;CDK1 (human); hela-s3): 0.05 µM and 0.03 µM

Continued, in another order:

IC50 (CDK2 (human) [1]) [µM] | Structure (SMILES) | also measured
> 10 | CC(C)n1cnc2c(NCc3ccc(-c4ccccc4)cc3)nc(N[C@H]3CCCC[C@H]3NC(=O)Nc3ccccc3)nc21 | IC50 (CDK2 (human) [2]): > 10 µM
≥ 10 | CC(=O)N[C@@H](C)CNc1nc(NCc2ccc(-c3ccccc3)cc2)c2ncn(C(C)C)c2n1 | IC50 (CDK2 (human) [2]): > 10 µM
> 10 | CC(C)n1cnc2c(NCc3ccc(-c4ccccc4)cc3)nc(NC3(CO)CCCC3)nc21 | –
> 10 | CC[C@H](CO)Nc1nc(NCc2ccc(-c3cccc(NC(C)=O)c3)cc2)c2ncn(C(C)C)c2n1 | –
> 10 | CC(C)n1cnc2c(NCc3ccc(-c4ccccc4)cc3)nc(N[C@H]3CC[C@H](O)CC3)nc21 | GI50 (CDK2;CDK1 (human); adr-res): 0.03 µM
> 10 | CC(=O)N[C@H]1CC[C@H](Nc2nc(NCc3ccc(-c4ccc(C)cc4)cc3)c3ncn(C(C)C)c3n2)CC1 | –
> 10 | CC(=O)N[C@H]1CCCC[C@@H]1Nc1nc(NCc2ccc(-c3ccccc3)cc2)c2ncn(C(C)C)c2n1 | IC50 (CDK2 (human) [2]): > 10 µM
